Results as given in publication PMC9145245, “Synthesis and Biochemical Evaluation of 8H-Indeno[1,2-d]thiazole Derivatives as Novel SARS-CoV-2 3CL Protease Inhibitors” (Molecules, 2022).
Where two headings read alike, the source gives them in different places.

Target: SARS-CoV-2 3CL^pro (Severe acute respiratory syndrome coronavirus 2, UniProt P0DTD1)
Test: biochemical
Assay type: biochemical
Settings: for inhibition at 20 µM: 20 μM compound; for inhibitory activity against SARS-CoV-2 3CL^pro (in words, SAR discussion): compared with 7a (7i–7k with 7h)
[1] = recombinant 3CLpro 40 nM, mean ± SD, n = 3
[2] = recombinant 3CLpro 40 nM, substrate 40 μM, mean ± SD, n = 3, read-out: SARS-CoV-2 3CL^pro IC50

Row | Compound | inhibition at 20 µM [1] | IC50 [2] | inhibitory activity against SARS-CoV-2 3CL^pro (in words, SAR discussion) | IC50
1 | COc1ccc2c(c1)Cc1sc(NC(=O)c3ccc(Cl)cc3)nc1-2 [compound 7k, 4-chloro-N-(6-methoxy-8H-indeno[1,2-d]thiazol-2-yl)benzamide] | 1.5 ± 4.5% | > 20 µM |  | 
2 | COc1cc(OC)cc(C(=O)Nc2nc3c(s2)Cc2ccc(OC)cc2-3)c1 [compound 4, 3,5-dimethoxy-N-(5-methoxy-8H-indeno[1,2-d]thiazol-2-yl)benzamide] |  | 6.42 ± 0.9 µM |  | 
3 | COc1ccc2c(c1)Cc1sc(NC(=O)c3cc(OC(C)=O)cc(OC(C)=O)c3)nc1-2 [compound 7g, 5-((6-methoxy-8H-indeno[1,2-d]thiazol-2-yl)carbamoyl)-1,3-phenylene diacetate] | 32.6 ± 6.8% | > 20 µM | dropped significantly | 
4 | COc1cc(OC)cc(C(=O)Nc2nc(-c3ccc(OC)c(C)c3)cs2)c1 [compound 10b, 3,5-dimethoxy-N-(4-(4-methoxy-3-methylphenyl)thiazol-2-yl)benzamide] | 1.8 ± 3.5% | > 20 µM | lost inhibitory activities | 
5 | COc1cc(OC)cc(C(=O)Nc2nc3c(s2)CCc2cc(OC)ccc2-3)c1 [compound 7l] | -13.1 ± 1.7% | > 20 µM | did not show any inhibitory activity | 
6 | COc1cc(OC)cc(C(=O)Nc2nc3c(s2)Cc2cc(OC)ccc2-3)c1 [compound 7a] | 89.5 ± 2% | 1.28 ± 0.17 µM |  | 
7 | COc1cc(OC)cc(C(=O)Nc2nc(-c3ccc(OC)cc3C)cs2)c1 [compound 10a] | 1.9 ± 2.1% | > 20 µM | lost inhibitory activities | 
8 | COc1ccc2c(c1)Cc1sc(NC(=O)c3cc(OC)c(OC)c(OC)c3)nc1-2 [compound 7f, 3,4,5-trimethoxy-N-(6-methoxy-8H-indeno[1,2-d]thiazol-2-yl)benzamide] | 5 ± 5.6% | > 20 µM | dropped significantly | 
9 | COc1cc(OC)cc(C(=O)Nc2nc3c(s2)Cc2cc(Cl)ccc2-3)c1 [compound 7e, N-(6-chloro-8H-indeno[1,2-d]thiazol-2-yl)-3,5-dimethoxybenzamide] | 27.2 ± 5.3% | > 20 µM | completely abolished | 
10 | CCCCOc1ccc2c(c1)Cc1sc(NC(=O)c3cc(OC)cc(OC)c3)nc1-2 [compound 7b, N-(6-butoxy-8H-indeno[1,2-d]thiazol-2-yl)-3,5-dimethoxybenzamide] | 0.5 ± 4.9% | > 20 µM | completely abolished | 
11 | COc1cc(OC)cc(C(=O)Nc2nc3c(s2)Cc2cc(C)ccc2-3)c1 [compound 7d, 3,5-dimethoxy-N-(6-methyl-8H-indeno[1,2-d]thiazol-2-yl)benzamide] | 21.7 ± 2.2% | > 20 µM | completely abolished | 
12 | COc1cc(OC)cc(C(=O)Nc2nc3c(s2)Cc2cc(OCC(C)C)ccc2-3)c1 [compound 7c, N-(6-isobutoxy-8H-indeno[1,2-d]thiazol-2-yl)-3,5-dimethoxybenzamide] | -3.1 ± 1.7% | > 20 µM | completely abolished | 
13 | COc1ccc2c(c1)Cc1sc(NC(=O)c3cccc(F)c3)nc1-2 [compound 7i, 3-fluoro-N-(6-methoxy-8H-indeno[1,2-d]thiazol-2-yl)benzamide] | 20.3 ± 4.7% | > 20 µM |  | 
14 | COc1ccc2c(c1)Cc1sc(NC(=O)c3cccs3)nc1-2 [compound 7j, N-(6-methoxy-8H-indeno[1,2-d]thiazol-2-yl)thiophene-2-carboxamide] | 31.9 ± 18.2% |  |  | > 20 µM
15 | COc1cccc(C(=O)Nc2nc3c(s2)Cc2cc(OC)ccc2-3)c1 [compound 7h, 3-methoxy-N-(6-methoxy-8H-indeno[1,2-d]thiazol-2-yl)benzamide] | 72.5 ± 6.1% | 2.86 ± 0.11 µM | almost maintained its inhibitory activities | 
